The text below walks through data of US4975354A, “Photographic element comprising an ethyleneoxy-substituted amino compound and process adapted to provide high constrast development” (Eastman Kodak Company, priority 1989, dated 1990).

Molecules are shown by their SMILES.

This test in a line: Example 33: Film A (no incorporated booster) in Developer A versus Film B (Compound XIII) in Developer B, 80 seconds at 30° C. The conditions noted are these: Table III data. On the procedure:
This example was carried out using photographic elements similar to those of Examples 1 to 32 except that the nucleating agent employed was a mixture of the hydrazine compound: [drawing 33] at a coverage of 0.0121 g/m^2 and the hydrazine compound: [drawing 34] at a coverage of 0.00237 g/m^2.
A film designated Film A was prepared with no incorporated booster compound, while a film designated Film B contained 0.0861 g/m^2 of Compound XIII. A developing solution, designated Developer A, was formulated from the following ingredients: […]
A second developing solution, designated Developer B, differed from Developer A in that the 3-diethylamino-1,2-propanediol was omitted.
Film A was developed in Developer A at a pH of 11.6 for 80 seconds at 30° C. Film B was developed in Developer B for 80 seconds at 30° C. at pH levels of 11.6, 11.5 and 11.4. The pH's of the developing solutions were adjusted to the designated levels using concentrated potassium hydroxide and concentrated hydrochloric acid.

On to `CCN(CC)CC(O)CO` (stereo not shown) [3-diethylamino-1,2-propanediol], for which the “booster activity (in words)” value is “highly effective booster compound”.
